Results as given in publication PMC2652249 (Biochemistry, 2008).
Values joined by “and” are separate entries in the source; they are usually repeats but may differ in a detail not shown here. Equal values may be shown once. “Also recorded” adds a separate entry of the source. Read-outs that look alike come from different tables or passages of the source.

How the values were obtained:
[1] = biological target: T1, DNA polymerase X (Pol X) (African swine fever virus, UniProt P42494); assay: biochemical; assay type: biochemical
[2] = biological target: T1, DNA polymerase X (Pol X)
[3] = biological target: T1, DNA polymerase X (Pol X); settings: cited from earlier work

T1 sequence (P42494 whole entry, looked up): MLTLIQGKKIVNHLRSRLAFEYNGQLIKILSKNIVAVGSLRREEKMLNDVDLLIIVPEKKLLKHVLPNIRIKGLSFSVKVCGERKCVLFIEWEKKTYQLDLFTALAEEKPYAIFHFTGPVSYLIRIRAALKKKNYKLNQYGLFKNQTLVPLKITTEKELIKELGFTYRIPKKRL

SMILES | global fitting Vmax [1] | incorporation under the steady-state conditions [1] | Ki ([1]; global fitting KI) | Km ([1]; read-out: global fitting Km) | k1 of fluorescence change (double-exponential) [2] | k2 of fluorescence change (double-exponential) [2] | turnover rate slower than the rate of correct dG:dCTP incorporation [3] | Kd ([3]; read-out: KD,app) | inhibition of Pol X by PPi [1] | Km [1] | Vmax [1] | single-exponential rate k of fluorescence change [2]
Nc1ncnc2c1ncn2[C@H]1C[C@H](O)[C@@H](COP(=O)(O)OP(=O)(O)OP(=O)(O)O)O1 [dATP] | 1.51 nmol/min | no detectable incorporation | 48 µM and 150 µM | 13 µM | 5.92 ± 0.21 s⁻¹ | 1.17 ± 0.02 s⁻¹ | 430 fold | 80 µM | – | – | – | –
O=P(O)(O)OP(=O)(O)O [PPi, Pyrophosphate] | – | – | – | – | – | – | – | – | not inhibited noticeably; also recorded: modest inhibition | – | – | –
Nc1ccn([C@H]2C[C@H](O)[C@@H](COP(=O)(O)OP(=O)(O)OP(=O)(O)O)O2)c(=O)n1 [dCTP] | 0.51 nmol/min and 0.47 nmol/min | – | – | 35 µM and 41 µM | – | – | – | – | – | 32 µM and 45 µM | 0.52 ± 0.02 nmol/min and 0.49 ± 0.02 nmol/min | 1.64 s⁻¹ and 1.64 ± 0.01 s⁻¹
